# Patent EP1035837B1, “LIPID COMPOSITIONS AND THEIR USE” (PHARES PHARMACEUTICAL RESEARCH N.V., priority 1997, dated 1999)
# How the values were obtained:
# [1] = Pro-liposome gel formulation work: effect of ethanol and drug concentration on drug solubility, gel formation and gel appearance on storage; format: physicochemical
# Description: Approximately 10% of the total lipid and all the ethanol were weighed into an amber glass jar and mixed until all the lipid had dispersed. The antifungal drug was added to the lipid/ethanol mixture and further mixing was carried out to break up the drug particles. The remainder of the lipid was added and mixing was continued until all the lipid had been dispersed. The glycerol was then added and stirring was continued until a homogenous gel was obtained. It was clear and translucent with a sweet pleasant taste and could be applied directly to the mucosa. From about 1% to 10% or more, but preferably about 2% to 5% of a hydrophilic polymer or natural gum can be dispersed in powder form to render the preparation muco-adhesive. Compositions utilising lipid blends or lecithins which contain 45% PC, form liposomes on conversion with water. The drug is associated with the liposomes at very high levels, ie greater than 90%.
# The preparation of the pro-liposome miconazole and clotrimazole gel was as described above. Early formulation work was carried out to find: • i) A gel formulation with enough ethanol to dissolve the miconazole and clotrimazole giving the gel a translucent appearance, but with […] as to obtain an optimum viscosity profile (Table 1). • ii) A gel formulation with not too much miconazole or clotrimazole to induce crystallisation of the drug in the gel (Table 2).
# At this level of ethanol, miconazole drug crystallisation was not seen in 1% and 2.5% miconazole gals.
# [2] = cited from earlier work
# [3] = % encapsulation of drug into liposomes from pro-liposome gels (filtration through 200 nm filters, HPLC); format: physicochemical; conditions: Example 3 gel (90% PC, Tris base); average particle size of 1-5µ
# Description: The % encapsulation of the antifungal drugs miconazole and clotrimazole was determined by filtration of the liposome dispersion and by HPLC analysis of the unfiltered and filtered solutions for drug content. The principle behind the filtration technique is that the liposomes (with encapsulated antifungal). can be passed through 200 nm filters, while unencapsulated drug particles remain too large to pass through the filters. Pro-liposome gels were prepared, containing 2.5% and 1% miconazole and 1% and 0.5% clotrimazole. […] The % encapsulation of drug would be expected to decrease if crystallisation occurred in the gels with time.
# Using the method of Example 1, pro-liposome gels were made with various concentrations of amphotericin B. The % encapsulation of the amphotericin B into liposomes (in 0.1% suspensions of the gel formulations) was measured at 3 days, 1 month, 3 months and 6 months after pro-liposome preparation. The gels were stored at 4°C ;in sealed containers, protected from light (Table 4). […]
# [4] = Table 1, ethanol 5 %, 45% PC lipid 20 %, drug 1 %, glycerol 74 %
# [5] = Table 2, ethanol 5 %, 45%PC 20 %, drug 1 %, glycerol 74 %
# [6] = Table 2, ethanol 5 %, 45%PC 20 %, glycerol 72.5 %, drug 2.5 % (clotrimazole line prints 1)
# [7] = ethanol 2.5 %, 45% PC lipid 20 %, drug 1 %, glycerol 76.5 %
# [8] = ethanol 10 %, 45% PC lipid 20 %, drug 1 %, glycerol 69 %
# [9] = ethanol 15 %, 45% PC lipid 20 %, drug 1 %, glycerol 64 %
encapsulation into liposomes formed from the pro-liposome by addition of water [3] [%],Compound,"Initial Comments: drug solubility in ethanol + 10% of lipid [1, 4]","Initial Comments: drug solubility in ethanol + 10% of lipid [1, 5]","Initial Comments: drug solubility in ethanol + 10% of lipid [1, 6]","Initial Comments: drug solubility in ethanol + 10% of lipid [1, 7]","Initial Comments: drug solubility in ethanol + 10% of lipid [1, 8]","Initial Comments: drug solubility in ethanol + 10% of lipid [1, 9]",solubility in ethanol [2],solubility in water [2]
–,"Clc1ccccc1C(c1ccccc1)(c1ccccc1)n1ccnc1 [Clotrimazole, 1-(o-chloro-a,a-diphenylbenzyl)imidazole]","Clotrimazole soluble in ethanol + 10% of lipid. Clear, golden gel formed with good viscosity","Clotrimazole soluble in ethanol + 10% of lipid. Clear, golden gel formed with good viscosity","Clotrimazole soluble in ethanol + 10% of lipid. Clear, golden gel formed with good viscosity",Clotrimazole insoluble in ethanol + 10% of lipid. Not enough ethanol to disperse all the lipid and form a gel,"Clotrimazole soluble in ethanol + 10% of lipid. Clear, golden gel formed with runny viscosity","Clotrimazole soluble in ethanol + 10% of lipid. Clear, golden gel formed with very runny viscosity",soluble,insoluble
–,"Clc1ccc(COC(Cn2ccnc2)c2ccc(Cl)cc2Cl)c(Cl)c1 (stereo not drawn) [Miconazole, 1-[2-dichloro-β-[2,4-dichlorobenzyl)oxyphenethyl]imidazole mononitrate]","Miconazole soluble in ethanol + 10% of lipid. Clear, golden gel formed with good viscosity","Miconazole soluble in ethanol + 10% of lipid. Clear, golden gel formed with good viscosity","Miconazole soluble in ethanol + 10% of lipid. Clear, golden gel formed with good viscosity",Miconazole soluble in ethanol + 10% of lipid. Not enough ethanol to disperse all the lipid and form a gel,"Miconazole soluble in ethanol + 10% of lipid. Clear, golden gel formed with runny viscosity","Miconazole soluble in ethanol + 10% of lipid. Clear, golden gel formed with very runny viscosity",very soluble,very slightly soluble
~100,"C[C@@H]1[C@H](O)[C@@H](C)/C=C/C=C/C=C/C=C/C=C/C=C/C=C/[C@H](O[C@@H]2O[C@H](C)[C@@H](O)[C@H](N)[C@@H]2O)C[C@@H]2O[C@](O)(C[C@@H](O)C[C@@H](O)[C@H](O)CC[C@@H](O)C[C@@H](O)CC(=O)O[C@H]1C)C[C@H](O)[C@H]2C(=O)O [Amphotericin B, amphotericin B]",–,–,–,–,–,–,–,–
